In paper PMC5218480 (PLoS ONE, 2017):

System: MV-4-11 cells
Test: Gene expression microarray analysis (Affymetrix PrimeView) and GSEA
Assay type: cell-based, human
Set-up: RFU PODN (11730768_x_at) / Fold change /veh PODN (11730768_x_at) / RFU LINC00158 (11744669_a_at) / Fold change /veh LINC00158 (11744669_a_at) / RFU DUSP10 (11751237_a_at) / Fold change /veh DUSP10 (11751237_a_at) / RFU ID3 (11757404_x_at) / Fold change /veh ID3 (11757404_x_at) / RFU PLEKHG5 (11737974_s_at) / Fold change /veh PLEKHG5 (11737974_s_at) / RFU LRRC4B (11730491_at) / Fold change /veh LRRC4B (11730491_at) / RFU GIMAP4 (11747438_a_at) / Fold change /veh GIMAP4 (11747438_a_at) / RFU KRT8 (11758183_x_at) / Fold change /veh KRT8 (11758183_x_at) / RFU CNN1 (11734310_a_at) / Fold change /veh CNN1 (11734310_a_at) / RFU VPS37D (11726825_at) / Fold change /veh VPS37D (11726825_at) / RFU C10orf10 (11716522_x_at) / Fold change /veh C10orf10 (11716522_x_at) / RFU KIR2DL2 /// KIR2DL4 /// KIR2DL5A /// KIR2DL5B /// KIR2DS1 /// KIR2DS2 /// KIR2DS3 /// KIR2DS4 /// KIR3DL3 /// KIR3DL3 /// KIR3DS1 (11738374_at) / Fold change /veh KIR2DL2 /// KIR2DL4 /// KIR2DL5A /// KIR2DL5B /// KIR2DS1 /// KIR2DS2 /// KIR2DS3 /// KIR2DS4 /// KIR3DL3 /// KIR3DL3 /// KIR3DS1 (11738374_at) / RFU C1QL1 (11718748_at) / Fold change /veh C1QL1 (11718748_at) / RFU TMPRSS4 (11747572_a_at) / Fold change /veh TMPRSS4 (11747572_a_at) / RFU HAMP (11756126_x_at) / Fold change /veh HAMP (11756126_x_at) / RFU RNFT2 (11725882_a_at) / Fold change /veh RNFT2 (11725882_a_at) / RFU NR4A2 (11747474_a_at) / Fold change /veh NR4A2 (11747474_a_at) / RFU ABCC12 (11746883_a_at) / Fold change /veh ABCC12 (11746883_a_at) / RFU TMEM136 (11760407_x_at) / Fold change /veh TMEM136 (11760407_x_at) / RFU CLDN22 /// WWC2 (11732394_at) / Fold change /veh CLDN22 /// WWC2 (11732394_at) / RFU HLA-DPB1 (11760878_x_at) / Fold change /veh HLA-DPB1 (11760878_x_at) / RFU SPINT1 (11716480_a_at) / Fold change /veh SPINT1 (11716480_a_at) / RFU GAP43 (11754022_s_at) / Fold change /veh GAP43 (11754022_s_at) / RFU A4GNT (11735810_at) / Fold change /veh A4GNT (11735810_at) / RFU PRB3 (11715151_x_at) / Fold change /veh PRB3 (11715151_x_at) / RFU TUBB4B (11761932_at) / Fold change /veh TUBB4B (11761932_at) / RFU CAPN14 (11732068_a_at) / Fold change /veh CAPN14 (11732068_a_at) / RFU TMCC2 (11721928_a_at) / Fold change /veh TMCC2 (11721928_a_at) / RFU IRGQ (11745062_a_at) / Fold change /veh IRGQ (11745062_a_at) / RFU FAM174B (11720279_a_at) / Fold change /veh FAM174B (11720279_a_at) / RFU TMPRSS4 (11748680_a_at) / Fold change /veh TMPRSS4 (11748680_a_at) / RFU FAM212B (11763350_a_at) / Fold change /veh FAM212B (11763350_a_at) / RFU PLEKHG5 (11743358_a_at) / Fold change /veh PLEKHG5 (11743358_a_at) / RFU ZSCAN30 (11745921_a_at) / Fold change /veh ZSCAN30 (11745921_a_at) / RFU CMKLR1 (11741424_a_at) / Fold change /veh CMKLR1 (11741424_a_at) / RFU LOC101060620 /// MAPK8IP1 (11723275_at) / Fold change /veh LOC101060620 /// MAPK8IP1 (11723275_at) / RFU SPTSSB (11747773_x_at) / Fold change /veh SPTSSB (11747773_x_at) / RFU PRSS12 (11739890_at) / Fold change /veh PRSS12 (11739890_at) / RFU BIN1 (11741810_x_at) / Fold change /veh BIN1 (11741810_x_at) / RFU WNT11 (11732464_a_at) / Fold change /veh WNT11 (11732464_a_at) / RFU C10orf10 (11716521_a_at) / Fold change /veh C10orf10 (11716521_a_at) / RFU C5orf56 (11738089_at) / Fold change /veh C5orf56 (11738089_at) / RFU CYB561 (11721691_x_at) / Fold change /veh CYB561 (11721691_x_at) / RFU ANKRD19P (11752326_a_at) / Fold change /veh ANKRD19P (11752326_a_at) / RFU OR2T12 /// OR2T33 /// OR2T8 (11738714_s_at) / Fold change /veh OR2T12 /// OR2T33 /// OR2T8 (11738714_s_at) / RFU VCAN (11748164_a_at) / Fold change /veh VCAN (11748164_a_at) / RFU JSRP1 (11732532_at) / Fold change /veh JSRP1 (11732532_at) / RFU KRTAP10-11 (11738290_x_at) / Fold change /veh KRTAP10-11 (11738290_x_at) / RFU MYO3A (11730013_a_at) / Fold change /veh MYO3A (11730013_a_at) / RFU EBF3 (11725865_a_at) / Fold change /veh EBF3 (11725865_a_at) / RFU CAMK2N1 (11719241_x_at) / Fold change /veh CAMK2N1 (11719241_x_at) / RFU C5orf56 (11738088_a_at) / Fold change /veh C5orf56 (11738088_a_at) / RFU OLFML3 (11715873_a_at) / Fold change /veh OLFML3 (11715873_a_at) / RFU LOC100653217 /// NTM (11731650_a_at) / Fold change /veh LOC100653217 /// NTM (11731650_a_at) / RFU MAPK11 (11762145_a_at) / Fold change /veh MAPK11 (11762145_a_at) / RFU FIZ1 (11724087_x_at) / Fold change /veh FIZ1 (11724087_x_at) / RFU OASL (11726364_x_at) / Fold change /veh OASL (11726364_x_at) / RFU SOX15 (11748057_x_at) / Fold change /veh SOX15 (11748057_x_at) / RFU CD79A (11719716_a_at) / Fold change /veh CD79A (11719716_a_at) / RFU HIST1H1D (11736915_at) / Fold change /veh HIST1H1D (11736915_at) / RFU CASKIN2 (11723855_a_at) / Fold change /veh CASKIN2 (11723855_a_at) / RFU LOC730098 (11760151_x_at) / Fold change /veh LOC730098 (11760151_x_at) / RFU OR4N2 (11742367_at) / Fold change /veh OR4N2 (11742367_at) / RFU PRRT2 (11749266_a_at) / Fold change /veh PRRT2 (11749266_a_at) / RFU SNX32 (11753110_a_at) / Fold change /veh SNX32 (11753110_a_at) / RFU CDHR5 (11726645_a_at) / Fold change /veh CDHR5 (11726645_a_at) / RFU RCAN1 (11760418_a_at) / Fold change /veh RCAN1 (11760418_a_at) / RFU FAM167A (11723789_a_at) / Fold change /veh FAM167A (11723789_a_at) / RFU FAM26E (11764081_at) / Fold change /veh FAM26E (11764081_at) / RFU ISYNA1 (11749810_s_at) / Fold change /veh ISYNA1 (11749810_s_at) / RFU ACY1 (11761880_at) / Fold change /veh ACY1 (11761880_at) / RFU 11764098_at / Fold change /veh 11764098_at / RFU SAMD14 (11745864_x_at) / Fold change /veh SAMD14 (11745864_x_at) / RFU NPB (11741838_a_at) / Fold change /veh NPB (11741838_a_at) / RFU TMPRSS6 (11731388_a_at) / Fold change /veh TMPRSS6 (11731388_a_at) / RFU KRTAP10-2 (11738614_at) / Fold change /veh KRTAP10-2 (11738614_at) / RFU ARHGAP8 /// PRR5-ARHGAP8 (11727945_x_at) / Fold change /veh ARHGAP8 /// PRR5-ARHGAP8 (11727945_x_at) / RFU KRTAP5-7 /// NADSYN1 (11734609_at) / Fold change /veh KRTAP5-7 /// NADSYN1 (11734609_at) / RFU RASL12 (11751679_a_at) / Fold change /veh RASL12 (11751679_a_at) / RFU CDKN2B (11736163_a_at) / Fold change /veh CDKN2B (11736163_a_at) / RFU PRF1 (11729649_at) / Fold change /veh PRF1 (11729649_at) / RFU, ZNF638 /// ZNF638-IT1 / Fold change vs veh, ZNF638 /// ZNF638-IT1 / RFU, PANK3 / Fold change vs veh, PANK3 / RFU, SH3YL1 / Fold change vs veh, SH3YL1 / RFU, ZEB2 / Fold change vs veh, ZEB2 / RFU, NRIP1 / Fold change vs veh, NRIP1 / RFU, PTTG1IP / Fold change vs veh, PTTG1IP / RFU, CAPN2 / Fold change vs veh, CAPN2 / RFU, MED14 / Fold change vs veh, MED14 / RFU, SNORA58 / Fold change vs veh, SNORA58 / RFU, C1orf63 / Fold change vs veh, C1orf63 / RFU, LRRFIP1 / Fold change vs veh, LRRFIP1 / RFU, NDUFAF7 / Fold change vs veh, NDUFAF7 / RFU, SLC12A2 / Fold change vs veh, SLC12A2 / RFU, IBTK / Fold change vs veh, IBTK / RFU, ESF1 / Fold change vs veh, ESF1 / Fold change vs veh, TMEM50B / RFU, TAOK1 / Fold change vs veh, TAOK1 / RFU, ACBD3 / Fold change vs veh, ACBD3 / RFU, TMA16 / Fold change vs veh, TMA16 / RFU, RWDD3 / Fold change vs veh, RWDD3 / RFU, BCAT1 / Fold change vs veh, BCAT1 / RFU, EDEM3 / Fold change vs veh, EDEM3 / RFU, TMEM33 / Fold change vs veh, TMEM33 / RFU, WDR75 / Fold change vs veh, WDR75 / RFU, AHCTF1 / Fold change vs veh, AHCTF1 / RFU, TFRC / Fold change vs veh, TFRC / RFU, ZDHHC17 / Fold change vs veh, ZDHHC17 / RFU, NOM1 / Fold change vs veh, NOM1 / RFU, ARL8B / Fold change vs veh, ARL8B / RFU, ZBTB11 / Fold change vs veh, ZBTB11 / RFU, TAMM41 / Fold change vs veh, TAMM41 / RFU, KIAA1704 /// LOC100996395 / Fold change vs veh, KIAA1704 /// LOC100996395 / RFU, ING1 / Fold change vs veh, ING1 / RFU, TRMT61B / Fold change vs veh, TRMT61B / RFU, FUBP3 / Fold change vs veh, FUBP3 / RFU, TP53 / Fold change vs veh, TP53 / RFU, TNKS2 / Fold change vs veh, TNKS2 / RFU, ZFP14 / Fold change vs veh, ZFP14 / RFU, ACTR2 / Fold change vs veh, ACTR2 / RFU, PPP3R1 / Fold change vs veh, PPP3R1 / RFU, PIK3R1 / Fold change vs veh, PIK3R1 / RFU, HNRNPA1 / Fold change vs veh, HNRNPA1 / RFU, RNF170 / Fold change vs veh, RNF170 / RFU, ZNF28 / Fold change vs veh, ZNF28 / RFU, RNGTT / Fold change vs veh, RNGTT / RFU, OGT / Fold change vs veh, OGT / RFU, BRD1 / Fold change vs veh, BRD1 / RFU, MARS / Fold change vs veh, MARS / RFU, ZNF655 / Fold change vs veh, ZNF655 / RFU, FAHD1 / Fold change vs veh, FAHD1 / RFU, BDP1 / Fold change vs veh, BDP1 / RFU, LRRCC1 / Fold change vs veh, LRRCC1 / RFU, ARID1A / Fold change vs veh, ARID1A / RFU, ZNF146 / Fold change vs veh, ZNF146 / RFU, ZNF330 / Fold change vs veh, ZNF330 / RFU, GPN3 / Fold change vs veh, GPN3 / RFU, C9orf123 / Fold change vs veh, C9orf123 / RFU, N4BP2L2 / Fold change vs veh, N4BP2L2 / RFU, ARFIP1 / Fold change vs veh, ARFIP1 / RFU, FAM179B / Fold change vs veh, FAM179B / RFU, BCL10 / Fold change vs veh, BCL10 / RFU, UHRF1BP1L / Fold change vs veh, UHRF1BP1L / RFU, BET1 / Fold change vs veh, BET1 / RFU, CNOT2 / Fold change vs veh, CNOT2 / RFU, ZNF268 / Fold change vs veh, ZNF268 / Fold change vs veh, ZNF507 / RFU, DGCR2 / Fold change vs veh, DGCR2 / RFU, WDSUB1 / Fold change vs veh, WDSUB1 / Fold change vs veh, HSP90B1 /// MIR3652 / RFU, ADSS / Fold change vs veh, ADSS / RFU, GK / Fold change vs veh, GK / RFU, ZNF148 / Fold change vs veh, ZNF148 / RFU, TAF9 / Fold change vs veh, TAF9 / RFU, SLC1A5 / Fold change vs veh, SLC1A5 / RFU, SLMO2 / Fold change vs veh, SLMO2 / RFU, ABCC4 / Fold change vs veh, ABCC4 / RFU, LOC101060439 /// RAP1B / Fold change vs veh, LOC101060439 /// RAP1B / RFU, RFX7 / Fold change vs veh, RFX7 / RFU, GTPBP10 / Fold change vs veh, GTPBP10 / RFU, CNEP1R1 / Fold change vs veh, CNEP1R1 / RFU, BIVM-ERCC5 /// ERCC5 / Fold change vs veh, BIVM-ERCC5 /// ERCC5 / RFU, ILF3 / Fold change vs veh, ILF3 / RFU 11762660_at / Fold change /veh 11762660_at / RFU VCAN (11757783_s_at) / Fold change /veh VCAN (11757783_s_at) / RFU DDX43 (11728927_at) / Fold change /veh DDX43 (11728927_at) / RFU KRT8 (11758188_x_at) / Fold change /veh KRT8 (11758188_x_at) / RFU NKD1 (11759106_at) / Fold change /veh NKD1 (11759106_at) / RFU SRD5A1 (11742802_a_at) / Fold change /veh SRD5A1 (11742802_a_at) / RFU TPSAB1 /// TPSB2 (11721975_s_at) / Fold change /veh TPSAB1 /// TPSB2 (11721975_s_at) / RFU GSTM3 (11746129_a_at) / Fold change /veh GSTM3 (11746129_a_at) / RFU IL23R (11737362_x_at) / Fold change /veh IL23R (11737362_x_at) / RFU TMEM51 (11727254_a_at) / Fold change /veh TMEM51 (11727254_a_at) / RFU PIWIL2 (11732686_x_at) / Fold change /veh PIWIL2 (11732686_x_at) / RFU ORM1 (11744905_x_at) / Fold change /veh ORM1 (11744905_x_at) / RFU CCDC152 (11743942_at) / Fold change /veh CCDC152 (11743942_at) / RFU ECM1 (11717891_a_at) / Fold change /veh ECM1 (11717891_a_at) / RFU IL23R (11748794_a_at) / Fold change /veh IL23R (11748794_a_at) / RFU TNFAIP8L3 (11732012_x_at) / Fold change /veh TNFAIP8L3 (11732012_x_at) / RFU MBOAT4 (11741988_at) / Fold change /veh MBOAT4 (11741988_at) / RFU 11764193_at / Fold change /veh 11764193_at / RFU TMEM53 (11763286_at) / Fold change /veh TMEM53 (11763286_at) / RFU MAGEB2 (11727129_at) / Fold change /veh MAGEB2 (11727129_at) / RFU TMEM200A (11744735_a_at) / Fold change /veh TMEM200A (11744735_a_at) / RFU CCDC152 (11751479_a_at) / Fold change /veh CCDC152 (11751479_a_at) / RFU FAM211A (11726209_a_at) / Fold change /veh FAM211A (11726209_a_at) / RFU RGS16 (11746705_a_at) / Fold change /veh RGS16 (11746705_a_at) / RFU VCAN (11755009_s_at) / Fold change /veh VCAN (11755009_s_at) / RFU RHOB (11743442_s_at) / Fold change /veh RHOB (11743442_s_at) / RFU RGS16 (11720943_a_at) / Fold change /veh RGS16 (11720943_a_at) / RFU RGS16 (11720944_at) / Fold change /veh RGS16 (11720944_at) / RFU, VPS4B / Fold change vs veh, VPS4B / RFU, CREB1 / Fold change vs veh, CREB1 / RFU, DNAJC13 / Fold change vs veh, DNAJC13 / RFU, GNAQ / Fold change vs veh, GNAQ / RFU, CDK5R1 / Fold change vs veh, CDK5R1 / RFU, ZRANB3 / Fold change vs veh, ZRANB3 / RFU, CUL4A / Fold change vs veh, CUL4A / RFU, CCNY / Fold change vs veh, CCNY / RFU, UFL1 / Fold change vs veh, UFL1 / RFU, COG3 / Fold change vs veh, COG3 / RFU, DIAPH2 / Fold change vs veh, DIAPH2 / RFU, SKA2 / Fold change vs veh, SKA2 / RFU, AFF3 / Fold change vs veh, AFF3 / RFU, LMF1 / Fold change vs veh, LMF1 / RFU, IPO11 / Fold change vs veh, IPO11 / RFU, DFFB / Fold change vs veh, DFFB / RFU, FOXP1 / Fold change vs veh, FOXP1 / RFU, CARD8 / Fold change vs veh, CARD8 / RFU, STRN3 / Fold change vs veh, STRN3 / RFU, ADK / Fold change vs veh, ADK / RFU, RASSF2 / Fold change vs veh, RASSF2 / RFU, WIPF1 / Fold change vs veh, WIPF1 / RFU, LARP1B / Fold change vs veh, LARP1B / RFU, RASA1 / Fold change vs veh, RASA1 / RFU, RB1 / Fold change vs veh, RB1 / RFU, PPFIA1 / Fold change vs veh, PPFIA1 / RFU, MAT2A / Fold change vs veh, MAT2A / RFU, CCT5 / Fold change vs veh, CCT5 / RFU, WDR92 / Fold change vs veh, WDR92 / RFU, CUX1 / Fold change vs veh, CUX1 / RFU, TTC7A / Fold change vs veh, TTC7A / RFU, TMEM135 / Fold change vs veh, TMEM135 / RFU, DEPTOR / Fold change vs veh, DEPTOR / RFU, CPM / Fold change vs veh, CPM / RFU, DNAJB6 / Fold change vs veh, DNAJB6 / RFU, CACNA2D3 / Fold change vs veh, CACNA2D3 / RFU, DTX4 / Fold change vs veh, DTX4 / RFU, TFCP2 / Fold change vs veh, TFCP2 / RFU, GMCL1 /// GMCL1P1 / Fold change vs veh, GMCL1 /// GMCL1P1 / RFU, AEBP2 / Fold change vs veh, AEBP2 / RFU, SNHG1 /// SNORD22 /// SNORD25 /// SNORD26 /// SNORD27 /// SNORD28 /// SNORD29 /// SNORD31 / Fold change vs veh, SNHG1 /// SNORD22 /// SNORD25 /// SNORD26 /// SNORD27 /// SNORD28 /// SNORD29 /// SNORD31 / Fold change (Aza/veh), C12orf56 (ProbeSet 11735607_a_at) / Fold change (ACY-1035/veh), C12orf56 (ProbeSet 11735607_a_at) / Fold change (Aza/veh), FGFR1OP (ProbeSet 11751329_s_at) / Fold change (ACY-1035/veh), FGFR1OP (ProbeSet 11751329_s_at) / Fold change (Aza/veh), VPS36 (ProbeSet 11739960_a_at) / Fold change (ACY-1035/veh), VPS36 (ProbeSet 11739960_a_at) / RFU SYPL1 (11715823_x_at) / Fold change /veh SYPL1 (11715823_x_at) / RFU IGFBP7 (11715501_s_at) / Fold change /veh IGFBP7 (11715501_s_at) / RFU REEP3 (11722064_at) / Fold change /veh REEP3 (11722064_at) / RFU IGLL1 (11728026_x_at) / Fold change /veh IGLL1 (11728026_x_at): dose or concentration left out as unconfirmed
Details: ProbeSet 11740781_a_at; LIST B

Nc1ccc(-c2cccs2)cc1NC(=O)c1ccc2c(c1)cc(C1CC1)n2CCN1CCOCC1 [ACY-1035]
RFU, ILF3: 238.85 RFU
